Source: ChEMBL document CHEMBL4699515, “Staprexanthones, Xanthone-Type Stimulators of Pancreatic β-Cell Proliferation from a Mangrove Endophytic Fungus” (J Nat Prod, 2020)
The source made the active and inactive calls. The calls are words filed in the database; no cut-off is given here.

Experiments:
[1] = system: Pancreatic beta cell; assay: Induction of beta cells proliferation in 6 days post fertilize Tg(-1.2ins:H2BmCherry)/TgBAC(neurod1:eGFP) zebra fish larvae at 10 uM after 24 hrs by confocal microscopic method; type: functional, tissue-based; conditions: Danio rerio
[2] = system: INS1(832/13); assay: Induction of cell cycle progression at G1/S transition in rat INS-1 832/13 cells assessed as increase in Cdk 2 mRNA expression at 10 uM after 24 hs by qRT-PCR analysis; type: functional, cell-based; conditions: time 24.0 hrs
[3] = system: INS1(832/13); assay: Induction of cell cycle progression at G1/S transition in rat INS-1 832/13 cells assessed as increase in Cdk 4 mRNA expression at 10 uM after 24 hs by qRT-PCR analysis; type: functional, cell-based; conditions: time 24.0 hrs
[4] = system: Pancreatic beta cell; assay: Induction of beta cells proliferation in 6 days post fertilize Tg(-1.2ins:H2BmCherry)Tg(ins:mAG-zGeminin(1/100)) zebra fish larvae assessed as increase in beta cells at 50 uM after 24 hrs by confocal microscopic method relative to control; type: functional; conditions: Danio rerio
[5] = system: Pancreatic beta cell; assay: Induction of beta cells proliferation in 6 days post fertilize Tg(-1.2ins:H2BmCherry)Tg(ins:mAG-zGeminin(1/100)) zebra fish larvae assessed as increase in total beta cells after 24 hrs by confocal microscopic method; type: functional; conditions: Danio rerio, dose microM 5-25, time 24.0 hrs
[6] = Induction of beta cells proliferation in 6 days post fertilize Tg(-1.2ins:H2BmCherry)Tg(ins:mAG-zGeminin(1/100)) zebra fish larvae assessed as number of replicated beta cells at 10 uM after 24 hrs by confocal microscopic method (reference value: 1.7 +/- 0.5); type: functional, Danio rerio, Pancreatic beta cell
[7] = system: Pancreatic beta cell; assay: Induction of beta cells proliferation in 6 days post fertilize Tg(-1.2ins:H2BmCherry)/Tg(gcga:eGFP) zebra fish larvae at 10 uM after 24 hrs by confocal microscopic method; type: functional; conditions: Danio rerio
[8] = system: Pancreatic beta cell; assay: Induction of beta cells proliferation in 6 days post fertilize Tg(-1.2ins:H2BmCherry)Tg(ins:mAG-zGeminin(1/100)) zebra fish larvae assessed as increase in beta cell proliferation after 24 hrs by confocal microscopic method; type: functional; conditions: Danio rerio, dose microM 5-25, time 24.0 hrs
[9] = system: INS1(832/13); assay: Induction of cell proliferation in rat INS-1 832/13 cells after 24 hrs by CCK8 assay; type: functional, cell-based
[10] = system: INS1(832/13); assay: Induction of cell cycle progression at G1/S transition in rat INS-1 832/13 cells assessed as decrease in p21 mRNA expression at 10 uM after 24 hs by qRT-PCR analysis; type: functional, cell-based; conditions: time 24.0 hrs
[11] = Induction of beta cells proliferation in 5 days post fertilize Tg(-1.2ins:H2BmCherry) zebra fish larvae assessed as beta cell number at 10 uM after 24 hrs by confocal microscopic method (reference value: 35 +/- 1); type: functional, Danio rerio, Pancreatic beta cell
[12] = system: INS1(832/13); assay: Induction of cell cycle progression at G1/S transition in rat INS-1 832/13 cells assessed as decrease in p27 mRNA expression at 10 uM after 24 hs by qRT-PCR analysis; type: functional, cell-based; conditions: time 24.0 hrs
[13] = Toxicity in 6 days post fertilize Tg(-1.2ins:H2BmCherry)Tg(ins:mAG-zGeminin(1/100)) zebra fish beta cells at 50 uM after 24 hrs by confocal microscopic method; type: tissue-based, Danio rerio; conditions: zebrafish, pancreatic beta cell
[14] = system: INS1(832/13); assay: Induction of cell cycle progression at G1/S transition in rat INS-1 832/13 cells assessed as increase in Cyclin E mRNA expression at 10 uM after 24 hs by qRT-PCR analysis; type: functional, cell-based; conditions: time 24.0 hrs
[15] = Induction of beta cells proliferation in 6 days post fertilize Tg(-1.2ins:H2BmCherry)Tg(ins:mAG-zGeminin(1/100)) zebra fish larvae assessed as increase in beta cell proliferation at 25 uM after 24 hrs by confocal microscopic method relative to control; type: functional, Danio rerio, Pancreatic beta cell
[16] = system: Pancreatic beta cell; assay: Induction of beta cells proliferation in 6 days post fertilize Tg(-1.2ins:H2BmCherry)Tg(ins:mAG-zGeminin(1/100)) zebra fish larvae assessed as increase in total beta cells at 25 to 50 uM after 24 hrs by confocal microscopic method; type: functional, cell-based; conditions: Danio rerio, dose microM 25-50, time 24.0 hrs
[17] = system: Pancreatic beta cell; assay: Induction of beta cells proliferation in 6 days post fertilize Tg(-1.2ins:H2BmCherry)Tg(ins:mAG-zGeminin(1/100)) zebra fish larvae assessed as increase in total beta cells at 5 to 10 uM after 24 hrs by confocal microscopic method; type: functional; conditions: Danio rerio, dose microM 5-10, time 24.0 hrs
[18] = system: Pancreatic beta cell; assay: Induction of beta cells proliferation in 6 days post fertilize Tg(-1.2ins:H2BmCherry)Tg(ins:mAG-zGeminin(1/100)) zebra fish larvae assessed as increase in beta cell proliferation at 25 to 50 uM after 24 hrs by confocal microscopic method; type: functional; conditions: Danio rerio, dose microM 25-50, time 24.0 hrs
[19] = system: Pancreatic beta cell; assay: Induction of beta cells proliferation in 6 days post fertilize Tg(-1.2ins:H2BmCherry)Tg(ins:mAG-zGeminin(1/100)) zebra fish larvae assessed as increase in beta cell proliferation at 5 to 10 uM after 24 hrs by confocal microscopic method; type: functional; conditions: Danio rerio, dose microM 5-10, time 24.0 hrs

SMILES	Activity [1]	Activity [2]	Activity [3]	Activity [4]	Activity [5]	Activity [6]	Activity [7]	Activity [8]	Activity [9]	Activity [10]	Activity [11]	Activity [12]	Activity [13]	Activity [14]	Activity [15]	Activity [16]	Activity [17]	Activity [18]	Activity [19]
C=CC(C)(C)c1c(C)c(CC=C(C)C)c(O)c2c(=O)c3c(CO)cccc3oc12	Active	Active	Active	inactive	Dose-dependent effect	3.6	Active	Dose-dependent effect	Active	Active	40	Active	Toxic	Active	10%	–	–	–	–
CC(C)=CCc1c(C)cc2oc3cccc(C4O[C@H](C)[C@@H](C)O4)c3c(=O)c2c1O	–	–	–	–	–	–	–	–	–	–	39	–	–	–	–	–	–	–	–
C[C@]12C=CC(=O)C=C1CC[C@@H]1[C@@H]2[C@@H](O)C[C@@]2(C)[C@H]1CC[C@]2(O)C(=O)CO [PREDNISOLONE]	–	–	–	–	–	–	–	–	–	–	40	–	–	–	–	–	–	–	–
C=CC(C)(C)c1cc(CC=C(C)C)c(O)c2c(=O)c3c(CO)cc(C)cc3oc12	Active	Active	Active	–	–	4.3	Active	–	Active	Active	40	Active	Toxic	Active	–	inactive	Dose-dependent effect	inactive	Dose-dependent effect
